Reference: patent US20240228507A1, “GREEN SOLVENTS FOR CHEMICAL REACTIONS” (ECOLE POLYTECHNIQUE FÉDÉRALE DE LAUSANNE (EPFL), priority 2021, published 2024)

Experiments:
Format in all cases: physicochemical
[1] = Stability under acidic conditions; settings: 0.8M HCl
[2] = Miscibility with different solvents; design: key: “*” indicating—not miscible; settings: Table 1d; blank cell = miscible
[3] = Stability under hydrogenation conditions
Description: It is important to note that, DFX was stable under hydrogenation conditions (40 bar of H2, 70° C., 24 h), thus it can be used in reactions requiring high pressure of H2, elevated temperature, and/or long reaction time, which is a very desirable property for biomass-derived solvents.
40 bar of H2, 70° C., 24 h • 2. 40 bar of H2, 250° C., 3 h

[4] = Kamlet-Abboud-Taft solvatochromic parameters (dye absorption spectra); settings: Table 1a
Source text: Determination of the Kamlet-Abboud-Taft parameters was based on the absorption spectrum of two dyes (N,N-diethyl-4-nitroaniline and 4-nitroaniline) in different solvents, that allow calculating corresponding values using known procedures (P. G. Jessop, D. A. Jessop, D. Fu and L. Phan, Green Chem., 2012, 14, 1245-1259).

[5] = Stability of DFX under basic conditions (GC-FID/GC-MS, colour change); design: key to Reaction (Y/N): *Reaction (Y/N) means color change compared to blank solution.; *Reaction (Y/N) means color change compared to blank solution
Description: To assess DFX stability under basic conditions, we tested a series of organic and inorganic bases at 80° C. and 110° C. for maximum 48 h (Table 6). Visual color change compared to a blank solution of pure DFX indicated some reactions were occurring. After 0.5 h, 24 h, 48 h of exposure, the samples were injected in GC-FID and GC-MS and the area of DFX was compared with the one in blank sample using decane as the internal standard. As a result of this experiment, we identified some potential limitations of this emerging solvent. Specifically, inorganic bases such as K2CO3, NaOH, CsCO3 led to the highest extent of degradation (maximum 21% after 48 h). Triethylamine (NEt3) caused less than 5% of degradation, but led to the formation of dark solution as well as K2CO3, NaOH, CsCO3. Probably, impurities existing in DFX (95% pure) also contribute to a color change as they could interact with bases.

[6] = CsCO3 (base cell blank, row r16), 80° C., 0.5 h
[7] = CsCO3 (base cell blank, row r16), 80° C., 24 h
[8] = CsCO3 (base cell blank, row r16), 80° C., 48 h
[9] = CsCO3 (base cell blank, row r17), 110° C., 0.5 h
[10] = CsCO3 (base cell blank, row r17), 110° C., 24 h
[11] = CsCO3 (base cell blank, row r17), 110° C., 48 h
[12] = CsCO3, 110° C. (row r15), 0.5 h

DFX recovered ([1]; 70 to 95° C., no formaldehyde): more than 80% | DFX stable ([1]; formaldehyde added): around 90% | Miscibility with Cyclohexane [2]: * | Miscibility with Hexane [2]: * | Miscibility with di-n-butyl ether [2]: * | stability under hydrogenation conditions ([3]; 40 bar of H2, 70° C., 24 h): remained stable | stability under hydrogenation conditions ([3]; 40 bar of H2, 250° C., 3 h): remained stable | Kamlet-Taft Parameters Π* [4]: 0.92 | DFX degradation [5, 6]: 1% | Reaction (Y/N) [5, 6]: Y | DFX degradation [5, 7]: 4% | Reaction (Y/N) [5, 7]: Y | DFX degradation [5, 8]: 8% | Reaction (Y/N) [5, 8]: Y | DFX degradation [5, 9]: 1% | Reaction (Y/N) [5, 9]: Y | DFX degradation [5, 10]: 7% | Reaction (Y/N) [5, 10]: Y | DFX degradation [5, 11]: 11% | Reaction (Y/N) [5, 11]: Y | DFX degradation [5, 12]: 3% | Reaction (Y/N) [5, 12]: Y | DFX degradation ([5]; CsCO3, 110° C. (row r15), 24 h): 11% | Reaction (Y/N) ([5]; CsCO3, 110° C. (row r15), 24 h): Y | DFX degradation ([5]; CsCO3, 110° C. (row r15), 48 h): 21% | Reaction (Y/N) ([5]; CsCO3, 110° C. (row r15), 48 h): Y | DFX degradation ([5]; K2CO3, 80° C., 0.5 h): 2% | Reaction (Y/N) ([5]; K2CO3, 80° C., 0.5 h): Y | DFX degradation ([5]; K2CO3, 80° C., 24 h): 3% | Reaction (Y/N) ([5]; K2CO3, 80° C., 24 h): Y | DFX degradation ([5]; K2CO3, 80° C., 48 h): 7% | Reaction (Y/N) ([5]; K2CO3, 80° C., 48 h): Y | DFX degradation ([5]; K2CO3, 110° C., 0.5 h): 2% | Reaction (Y/N) ([5]; K2CO3, 110° C., 0.5 h): Y | DFX degradation ([5]; K2CO3, 110° C., 24 h): 5% | Reaction (Y/N) ([5]; K2CO3, 110° C., 24 h): Y | DFX degradation ([5]; K2CO3, 110° C., 48 h): 13% | Reaction (Y/N) ([5]; K2CO3, 110° C., 48 h): Y | DFX degradation ([5]; KOAc, 80° C., 0.5 h): 0% | Reaction (Y/N) ([5]; KOAc, 80° C., 0.5 h): N | DFX degradation ([5]; KOAc, 80° C., 24 h): 2% | Reaction (Y/N) ([5]; KOAc, 80° C., 24 h): N | DFX degradation ([5]; KOAc, 80° C., 48 h): 3% | Reaction (Y/N) ([5]; KOAc, 80° C., 48 h): N | DFX degradation ([5]; KOAc, 110° C., 0.5 h): 1% | Reaction (Y/N) ([5]; KOAc, 110° C., 0.5 h): Y | DFX degradation ([5]; KOAc, 110° C., 24 h): 3% | Reaction (Y/N) ([5]; KOAc, 110° C., 24 h): Y | DFX degradation ([5]; KOAc, 110° C., 48 h): 5% | Reaction (Y/N) ([5]; KOAc, 110° C., 48 h): Y | DFX degradation ([5]; NEt3, 80° C., 0.5 h): 3% | Reaction (Y/N) ([5]; NEt3, 80° C., 0.5 h): Y | DFX degradation ([5]; NEt3, 80° C., 24 h): 4% | Reaction (Y/N) ([5]; NEt3, 80° C., 24 h): Y | DFX degradation ([5]; NEt3, 80° C., 48 h): 5% | Reaction (Y/N) ([5]; NEt3, 80° C., 48 h): Y | DFX degradation ([5]; NaOH, 80° C., 0.5 h): 0% | Reaction (Y/N) ([5]; NaOH, 80° C., 0.5 h): Y | DFX degradation ([5]; NaOH, 80° C., 24 h): 9% | Reaction (Y/N) ([5]; NaOH, 80° C., 24 h): Y | DFX degradation ([5]; NaOH, 80° C., 48 h): 17% | Reaction (Y/N) ([5]; NaOH, 80° C., 48 h): Y | DFX degradation ([5]; Pyridine, 80° C., 0.5 h): 0% | Reaction (Y/N) ([5]; Pyridine, 80° C., 0.5 h): N | DFX degradation ([5]; Pyridine, 80° C., 24 h): 0% | Reaction (Y/N) ([5]; Pyridine, 80° C., 24 h): N | DFX degradation ([5]; Pyridine, 80° C., 48 h): 0% | Reaction (Y/N) ([5]; Pyridine, 80° C., 48 h): N | DFX degradation ([5]; Pyridine, 110° C., 0.5 h): 0% | Reaction (Y/N) ([5]; Pyridine, 110° C., 0.5 h): N | DFX degradation ([5]; Pyridine, 110° C., 24 h): 3% | Reaction (Y/N) ([5]; Pyridine, 110° C., 24 h): Y | DFX degradation ([5]; Pyridine, 110° C., 48 h): 6% | Reaction (Y/N) ([5]; Pyridine, 110° C., 48 h): Y | DFX degradation ([5]; Triethylamine (NEt3)): less than 5% | DFX degradation, highest extent ([5]; inorganic bases K2CO3, NaOH, CsCO3, after 48 h): ≤ 21%
SMILES: C1OC[C@H]2O[C@@H]3OCO[C@@H]3[C@H]2O1 [DFX, Diformylxylose]
